Kp, inhibition and IC50 data for 19 compounds are collected here from patent US7825160B2, “(Biphenyl) carboxylic acids and derivatives thereof” (Cellzome Limited, priority 2004, dated 2010).

For orientation: inhibition means the relative decrease from the control value, in per cent. The low end stands for a weak effect, the high end for a strong effect. The term IC50 denotes the concentration needed to halve the response being measured.

Series [1] can be described thus: Demonstration of CNS penetration, brain and plasma levels in mice. Type of series: in vivo. Particulars: mouse, oral, mice (C57), 100 mg/kg orally, samples at 2, 4 and 8 h, read-out: % ratio of brain to plasma concentration. The method, then: In-vivo Study: A total number of 24 mice (C57) were dosed orally at 100 mg/kg of drug compound in 10% propylene glycol, 7.5% ethanol and 82.5% solutol. At designated times (2, 4 and 8 his), a group of eight mice were sacrificed, and plasma and brain tissue samples were collected by following the NIH guideline.
Bioanalytical: Plasma samples were prepared as follows. Two hundred microliters of acetonitrile containing internal standard was added to 100 μL of plasma to precipitate proteins. After vortexing, samples were centrifuged at 10000 g for 10 min and supernatants were transferred to HPLC sample vials for analysis by LC-MS-MS. Calibration standards were prepared by adding appropriate volumes of drug stock solution directly into blank plasma (from untreated animals) and processed identically to collected plasma samples.
Brain tissues were first homogenized in two-volume of PBS buffer (e.g. 100 mg tissue in 200 μL PBS). Two hundred microliters of acetonitrile containing internal standard was added to 100 μL of tissue homogenants to precipitate proteins. Three replicates were processed for each tissue homogenant. After vortexing, samples were centrifuged at 10000 g for 10 min and supernatants were transferred to HPLC sample vials for analysis by LC-MS-MS. […]

The target in a further series is T1, Cyclooxygenase-2 (Cox-2) (Ovis aries, UniProt P79208).
T1 construct: purchased Cayman Chemical Company 760111
T1 sequence (P79208 17-603): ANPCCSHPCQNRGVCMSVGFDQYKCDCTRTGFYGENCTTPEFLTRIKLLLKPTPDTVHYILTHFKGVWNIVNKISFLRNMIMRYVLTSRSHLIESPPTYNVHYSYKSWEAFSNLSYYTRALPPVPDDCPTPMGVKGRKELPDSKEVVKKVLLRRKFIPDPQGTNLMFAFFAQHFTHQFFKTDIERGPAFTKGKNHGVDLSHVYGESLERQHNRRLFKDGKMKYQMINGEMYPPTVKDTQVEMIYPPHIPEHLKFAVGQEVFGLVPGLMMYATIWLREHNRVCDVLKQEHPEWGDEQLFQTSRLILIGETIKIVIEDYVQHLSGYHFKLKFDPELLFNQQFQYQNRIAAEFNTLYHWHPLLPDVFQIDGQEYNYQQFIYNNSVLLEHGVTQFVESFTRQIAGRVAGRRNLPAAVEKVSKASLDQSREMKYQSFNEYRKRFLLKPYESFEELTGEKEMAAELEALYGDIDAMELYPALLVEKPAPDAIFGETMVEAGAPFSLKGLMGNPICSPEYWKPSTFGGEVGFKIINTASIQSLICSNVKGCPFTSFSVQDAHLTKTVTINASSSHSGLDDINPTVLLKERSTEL
Briefly: Colorimetric Cox inhibitor screening assay (Cayman), Cox-2. The format is biochemical. The method, then: (§1) Determination of the Effect of the Compounds According to the Invention on Cyclooxygenase-1 and Cyclooxygenase-2 (Cox-1, Cox-2)
(§2) Inhibition of Cox-1 and Cox-2 was determined using the Colorimetric Cox inhibitor screening assay provided by Cayman Chemical Company, Ann Arbor, Mich., USA. (Cat. No. 760111) according to manufacturer's instructions.

The next series relates to γ-secretase activity. Briefly: Screening for γ-secretase-modulating activity in SKN neuroblastoma cells carrying APP swedish mutant. The format is cell-based. Conditions: read-out: IC50 on the γ-secretase activity, Activity range. The method, then:
Screening was carried out using SKN neuroblastoma cells carrying the APP-“swedish mutant” (point mutations at position 595 and 596, numbering based on APP695) grown in DMEM/NUT-mix F12 (HAM) provided by Gibco (cat no. 31330-38) containing 5% Serum/Fe supplemented with 1% non-essential amino acids, 100 U/ml Pen/Strep.
Cells were grown to near confluency.
The screening was performed using the assay as described in Citron et al (1997) Nature Medicine 3: 67.
IC50-Values of Selected Compounds of the Invention on the γ-Secretase Activity.

A further series deals with T2, Cyclooxygenase-1 (Cox-1) (Ovis aries, UniProt P05979).
T2 construct: purchased Cayman Chemical Company 760111
T2 sequence (P05979 25-600): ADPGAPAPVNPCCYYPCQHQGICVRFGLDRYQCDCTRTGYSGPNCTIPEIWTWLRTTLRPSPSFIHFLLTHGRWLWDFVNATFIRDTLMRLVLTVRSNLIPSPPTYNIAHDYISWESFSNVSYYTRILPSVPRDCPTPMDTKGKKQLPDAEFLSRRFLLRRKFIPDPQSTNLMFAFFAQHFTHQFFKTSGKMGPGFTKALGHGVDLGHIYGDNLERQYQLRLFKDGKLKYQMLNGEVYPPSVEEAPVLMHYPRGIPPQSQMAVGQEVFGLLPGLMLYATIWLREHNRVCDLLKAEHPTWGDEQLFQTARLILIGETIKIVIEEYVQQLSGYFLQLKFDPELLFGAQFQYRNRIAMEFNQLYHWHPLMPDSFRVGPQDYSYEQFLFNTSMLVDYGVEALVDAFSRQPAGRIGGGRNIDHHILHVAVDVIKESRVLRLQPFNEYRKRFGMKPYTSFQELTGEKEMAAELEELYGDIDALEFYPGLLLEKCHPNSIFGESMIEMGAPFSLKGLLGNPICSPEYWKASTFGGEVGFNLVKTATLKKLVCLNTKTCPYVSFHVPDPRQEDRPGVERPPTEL
Briefly: Colorimetric Cox inhibitor screening assay (Cayman), Cox-1. The format is biochemical. The procedure: as §1, §2

For `CCC[C@@H](C(=O)O)c1cc(OCc2ccccc2)cc(-c2ccc(C(F)(F)F)cc2)c1` (single isomer, unassigned) [LXIV], the Kp in series [1] amounted to 0.286.
Regarding `CCC[C@H](C(=O)O)c1cc(OCc2ccccc2)cc(-c2ccc(C(F)(F)F)cc2)c1` (single isomer, unassigned) [LXV], in series [1], the Kp was found to be 0.32.
`O=C(O)Cc1cc(OCc2ccc(F)cc2)cc(-c2ccc(C(F)(F)F)cc2)c1` [I, [5-(4-Fluoro-benzyloxy)-4′-trifluoromethyl-biphenyl-3-yl]-acetic acid]: the inhibition at 100 µM on Cyclooxygenase-2 (Cox-2) and on Cyclooxygenase-1 (Cox-1) was below 50% each time. The IC50 with γ-secretase activity lay in the range of 1 to 10 µM.
On to `O=C(O)Cc1cc(OCc2ccc(C(F)(F)F)cc2)cc(-c2ccc(C(F)(F)F)cc2)c1` [III, [4′-Trifluoromethyl-5-(4-trifluoromethyl-benzyloxy)-biphenyl-3-yl]-acetic acid], for which the inhibition at 100 µM against Cyclooxygenase-2 (Cox-2) and against Cyclooxygenase-1 (Cox-1) was below 50% throughout. In addition, the IC50 with γ-secretase activity was below 1 µM.
Regarding `O=C(O)Cc1cc(OCc2ccccc2)cc(-c2cc(Cl)cc(Cl)c2)c1` [IX, (5-Benzyloxy-3′,5′-dichloro-biphenyl-3-yl)-acetic acid], the inhibition at 100 µM on Cyclooxygenase-2 (Cox-2) and against Cyclooxygenase-1 (Cox-1) was below 50% in each case. The IC50 in the series on γ-secretase activity is 1 to 10 µM.
With `O=C(O)Cc1cc(OCC2CCCCC2)cc(-c2ccc(C(F)(F)F)cc2)c1` [V, (5-Cyclohexylmethoxy-4′-trifluoromethyl-biphenyl-3-yl)-acetic acid], the inhibition at 100 µM at Cyclooxygenase-2 (Cox-2) and on Cyclooxygenase-1 (Cox-1) was below 50% throughout. For the same compound, the half-inhibitory concentration (IC50) in the series on γ-secretase activity is below 1 µM.
Consider `O=C(O)Cc1cc(OCc2ccc(S(=O)(=O)N3CCCC3)cc2)cc(-c2ccc(C(F)(F)F)cc2)c1` [VI, {5-[4-(Pyrrolidine-1-sulfonyl)-benzyloxy]-4′-trifluoromethyl-biphenyl-3-yl}-acetic acid], for which the inhibition at 100 µM on Cyclooxygenase-2 (Cox-2) and against Cyclooxygenase-1 (Cox-1) was below 50% each time. For the same compound, the IC50 in the series with γ-secretase activity is 1 to 10 µM.
Turning to `CCCC(C(=O)O)c1cc(OCc2ccccc2)cc(-c2ccc(C(F)(F)F)cc2)c1` (centres unmarked) [VIII, 2-(5-Benzyloxy-4′-trifluoromethyl-biphenyl-3-yl)-pentanoic acid], the inhibition at 100 µM against Cyclooxygenase-2 (Cox-2) and against Cyclooxygenase-1 (Cox-1) was below 50% each time. Besides, the IC50 in the series with γ-secretase activity is below 1 µM.
Turning to `O=C(O)Cc1cc(OCc2ccccc2)cc(-c2ccc(C(F)(F)F)cc2)c1` [X, (5-Benzyloxy-4′-trifluoromethyl-biphenyl-3-yl)-acetic acid], the inhibition at 100 µM at Cyclooxygenase-2 (Cox-2) and at Cyclooxygenase-1 (Cox-1) was below 50% throughout. Moreover, the IC50 in the series on γ-secretase activity fell in the range of 1 to 10 µM.
In the case of `O=C(O)Cc1cc(OCc2ccccc2)cc(-c2ccc(OC(F)(F)F)cc2)c1` [XIII, (5-Benzyloxy-4′-trifluoromethoxy-biphenyl-3-yl)-acetic acid], the inhibition at 100 µM on Cyclooxygenase-2 (Cox-2) and against Cyclooxygenase-1 (Cox-1) was below 50% each time. Also, the half-maximal inhibitory concentration (IC50) in the series with γ-secretase activity fell in the range of 1 to 10 µM.
For `CC(C(=O)O)c1cc(OCc2ccccc2)cc(-c2ccc(C(F)(F)F)cc2)c1` (centres unmarked) [XIX, 2-(5-Benzyloxy-4′-trifluoromethyl-biphenyl-3-yl)-propionic acid], the inhibition at 100 µM against Cyclooxygenase-2 (Cox-2) and at Cyclooxygenase-1 (Cox-1) was below 50% throughout. In addition, the IC50 with γ-secretase activity fell in the range of 1 to 10 µM.
Regarding `CCCC(C(=O)O)c1cc(OCC2CC2)cc(-c2ccc(C(F)(F)F)cc2)c1` (centres unmarked) [XL, 2-(5-Cyclopropylmethoxy-4′-trifluoromethyl-biphenyl-3-yl)-pentanoic acid], the inhibition at 100 µM on Cyclooxygenase-2 (Cox-2) and at Cyclooxygenase-1 (Cox-1) was below 50% throughout. Also, in the series with γ-secretase activity, the IC50 was 1 to 10 µM.
Take `O=C(O)Cc1cc(OCC2CC2)cc(-c2ccc(C(F)(F)F)cc2)c1` [XLII, (5-Cyclopropylmethoxy-4′-trifluoromethyl-biphenyl-3-yl)-acetic acid]: the inhibition at 100 µM against Cyclooxygenase-2 (Cox-2) and against Cyclooxygenase-1 (Cox-1) was below 50% throughout. For the same compound, the IC50 with γ-secretase activity is 1 to 10 µM.
On to `O=C(O)Cc1cc(OCc2cc(Cl)cc(Cl)c2)cc(-c2ccc(C(F)(F)F)cc2)c1` [XLIV, [5-(3,5-Dichloro-benzyloxy)-4′-trifluoromethyl-biphenyl-3-yl]-acetic acid], for which the inhibition at 100 µM against Cyclooxygenase-2 (Cox-2) and on Cyclooxygenase-1 (Cox-1) was below 50% in each case. Also, the IC50 with γ-secretase activity lay in the range of 1 to 10 µM.
Take `CN(C)S(=O)(=O)c1ccc(COc2cc(CC(=O)O)cc(-c3ccc(C(F)(F)F)cc3)c2)cc1` [XLVI, [5-(4-Dimethylsulfamoyl-benzyloxy)-4′-trifluoromethyl-biphenyl-3-yl]-acetic acid]: the inhibition at 100 µM against Cyclooxygenase-2 (Cox-2) and against Cyclooxygenase-1 (Cox-1) was below 50% each time. Moreover, the IC50 with γ-secretase activity fell in the range of 1 to 10 µM.
`CC(Oc1cc(CC(=O)O)cc(-c2ccc(C(F)(F)F)cc2)c1)c1ccccc1` (centres unmarked) [XLVII, [5-(1-Phenyl-ethoxy)-4′-trifluoromethyl-biphenyl-3-yl]-acetic acid]: the inhibition at 100 µM on Cyclooxygenase-2 (Cox-2) and against Cyclooxygenase-1 (Cox-1) was below 50% in each case. In the series on γ-secretase activity, the half-inhibitory concentration (IC50) fell in the range of 1 to 10 µM.
Consider `CC(C)(C(=O)O)c1cc(OCc2ccccc2)cc(-c2ccc(C(F)(F)F)cc2)c1` [XX, 2-(5-Benzyloxy-4′-trifluoromethyl-biphenyl-3-yl)-2-methyl-propionic acid], for which the inhibition at 100 µM against Cyclooxygenase-2 (Cox-2) and against Cyclooxygenase-1 (Cox-1) was below 50% in each case. Moreover, in the series with γ-secretase activity, the IC50 was 1 to 10 µM.
For the compound `O=C(O)C1(c2cc(OCc3ccccc3)cc(-c3ccc(C(F)(F)F)cc3)c2)CC1` [XXI, 1-(5-Benzyloxy-4′-trifluoromethyl-biphenyl-3-yl)-cyclopropanecarboxylic acid], the inhibition at 100 µM on Cyclooxygenase-2 (Cox-2) and on Cyclooxygenase-1 (Cox-1) was below 50% in each case. In addition, in the series on γ-secretase activity, the IC50 was 1 to 10 µM.
With `CCCC(C(=O)O)c1cc(OCc2ccc(S(=O)(=O)N3CCCC3)cc2)cc(-c2ccc(C(F)(F)F)cc2)c1` (centres unmarked) [XXXIX, 2-{5-[4-(Pyrrolidine-1-sulfonyl)-benzyloxy]-4′-trifluoromethyl-biphenyl-3-yl}-pentanoic acid], the inhibition at 100 µM at Cyclooxygenase-2 (Cox-2) and against Cyclooxygenase-1 (Cox-1) was below 50% each time. Further, the IC50 with γ-secretase activity fell in the range of 1 to 10 µM.
